Assays:
Type in all cases: cell-based
[1] = system: Colo205-LUC-TCF/LEF reporter gene; experiment: Colo205-LUC-TCF/LEF M1 reporter cell line luciferase inhibition; details: 4 h, 4 hours incubation, firefly luciferase signal
Method: Colo205 cell line (Cell Bank of Chinese Academy of Sciences, Cat #TCHul02) was purchased from the Cell Bank of Chinese Academy of Sciences. After expansion and subculture, during the exponential growth phase, luciferase reporter plasmid (Promega) driven by TCF/LEF transcription factor was transfected by lipo3000 liposome transfection. The plasmid carries a resistance gene for resistance screening. Transfection was carried out in 10 cm culture dishes using conventional complete medium without resistance. After 2 days, the medium with resistance was replaced, and the culture was continued. After that, the medium with resistance was replaced every 2 days, and the suspended cells were discarded. The original medium was centrifuged to remove cells and debris and retained as an adaptive medium. When the cells covered the culture dish, the cells were digested, counted, and passaged in a 96-well plate, so that the average number of cells contained in each well was 1.5/well, and the adaptive medium was used for passage. The rest of the cells were frozen. After passage, culture for 4 hours to allow the cells to adhere to the wall, and then observe the number of cells in each well under a microscope. Wells with only 1 cell per well were labeled as monoclonal wells. Afterwards, normal culture was performed, and the culture medium was replaced every 2 days, and observed. There are wells where the monoclonal cells continue to grow in the early stage, and they are labeled twice, and can be replaced with normal medium with resistance. When a monoclonal well was overgrown with a 96-well plate, it is digested and passaged to a 24-well culture plate. After the 24-well plate is overgrown, it is passaged to a 96-well plate and a 6-well plate. The cells in a 96-well plate are at least 6 wells, of which 3 wells were added with known Wnt inhibitors, and the other 3 wells were not treated. After 24 hours, the cells in the 96-well plate were added with a fluorescence detection reagent to detect the fluorescence intensity. Cell lines with fluorescent expression when not treated and decreased fluorescent light after inhibition were selected and further cultured. The Colo205-LUC-TCF/LEF-M1 cell line is one of the cell lines screened above. Its growth curve, cell shape, and cell growth state are similar to those of the original Colo205 cells, and the ratio of the fluorescent signals of the inhibitor-treated and untreated cells is the largest among all cell lines, and the ratio can reach 4-5 times when inhibited at 4 hours, which was completely suitable for the screening of Wnt inhibitors in the later stage.
The Colo205-LUC-TCF/LEF M1 cell line is a reporter tool cell stably transfected with the pGL4.49-LUC2-TCF/LEF vector. The β-catenin Wnt pathway is continuously activated. After adding the inhibitor, the Wnt pathway is inhibited. The expression of firefly luciferase regulated by the TCF/LEF cis-element decreased, and after adding the detection substrate, the detected light signal decreased accordingly, so as to detect the inhibitory effect of the compound.
To a 96-well cell culture plate, add 100 uL of the compound with a maximum concentration of 20 uM to each well, and make a 3-fold serial dilution of the compound concentration. Then 10,000 colo205 cells stably transfected with the reporter gene and 100 uL medium were inoculated into each well, and corresponding positive and negative control wells were made at the same time. Put the cells in a 5% CO2 incubator and incubate at 37° C. for 4 hours. After 4 hours, remove the culture medium, add 100 μL of reagent (Promega) containing the corresponding firefly luciferase substrate to each well, and measure the activity of luciferase reporter gene. Luminescence intensity was read with SpectraMax in full wavelength mode. […]

[2] = system: Colo205; experiment: Proliferation inhibition test, Wnt mutant cell line Colo205; details: Homo sapiens, COLO 205, 96 h, Colo205, 96 h culture with compound; read-out: Antiproliferation IC50 Colo205
Text: (§1) The cell lines used in the experiment are Colo205, H929, HepG2, and DU4475, which have sustained activation of the Wnt pathway and whose proliferation is Wnt pathway-dependent. On the other hand, RKO cell line, in which normally the Wnt pathway is not activated and whose proliferation is not Wnt pathway-dependent, was used as a control cell line. This was done to determine whether the inhibitory effect of the compound of the present disclosure on Wnt-dependent proliferation is due to other nonspecific toxicity.
(§2) Colo205, H929, DU4475, HepG2 and RKO cell lines cultured in their respective culture media were treated in the logarithmic growth phase, and the cells were collected and prepared into a uniform cell suspension of known concentration, and then added to a 96-well cell culture plate so that each well contained 1000-4000 cells. Place in a 5% CO2 cell culture incubator and culture at 37° C. for 20-24 h. On the second day, add the completely dissolved, 3-fold gradient dilution compound to each cell culture well to make the final maximum concentration in the cell culture well 10 uM, and continue to culture for 96 h. This test uses Promega's cell activity detection test for detection. The more the cells proliferate, the stronger the final signal intensity. The detection instrument is SpectraMax, full wavelength mode. The wells with only DMSO added were used as positive control wells, and the wells without cells inoculated were used as negative control wells.

[3] = system: DU4475; experiment: Proliferation inhibition test, Wnt mutant cell line DU4475; details: Homo sapiens, DU-4475, 96 h, DU4475, 96 h culture with compound; read-out: Antiproliferation IC50 DU4475
Text: as §1, §2

[4] = system: H929; experiment: Proliferation inhibition test, Wnt mutant cell line H929; details: Homo sapiens, NCI-H929, 96 h, H929, 96 h culture with compound; read-out: Antiproliferation IC50 H929
Text: as §1, §2

[5] = system: HepG2; experiment: Proliferation inhibition test, Wnt mutant cell line HepG2; details: Homo sapiens, HepG2, 96 h, HepG2, 96 h culture with compound; read-out: Antiproliferation IC50 HepG2
Text: as §1, §2

[6] = system: RKO; experiment: Proliferation inhibition test, non-Wnt mutant control cell line RKO; details: Homo sapiens; RKO (Wnt pathway not activated, control), 96 h culture, maximum concentration 10 uM; read-out: Antiproliferation IC50 RKO
Text: as §1, §2

IC50 [1]: 27.4 nM
IC50 [2]: 25.7 nM
IC50 [4]: 126 nM
IC50 [5]: 61.3 nM
Compound: Cc1nc(C(F)(F)F)ncc1Oc1ncc(CNc2nc3c4c(n2)N(C)[C@@](C)(CO)C(=O)N4CCC3)cc1F [Compound 28]
IC50 [3]: 16.8 nM
IC50 [6]: > 10000 nM

— patent publication US20250163062A1, “WNT PATHWAY INHIBITOR COMPOUNDS” (ADLAI NORTYE BIOPHARMA CO., LTD., priority 2022, published 2025)
